Calls of active or inactive are those of the source.
Legend:
[1] = target: 5-hydroxytryptamine receptor 1A (Homo sapiens, UniProt P08908); assay type: functional
[2] = general mammalian cell viability loss – inhibitor set, cherry-pick, set 2, cytotoxicity control for miR-122 modulator project, dose response (AID 720697); assay type: functional, cell-based
[3] = general mammalian cell viability loss – activator set, cherry-pick, cytotoxicity control for miR-122 modulator project, dose response (AID 720690); assay type: functional, cell-based;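 further: HEK293T human cells scored for general mammalian cytotoxicity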
[4] = tested on: Vero; experiment: mammalian cell viability reduction – secondary assay, cytotoxicity control for West Nile virus antiviral project, dose response (AID 1650); assay type: functional; conditions: Chlorocebus sabaeus
[5] = Trypanosoma cruzi growth suppression in host cells – NIH3T3 host cells, beta-gal luminescence, confirmation (AID 2044); assay type: functional, cell-based;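 further: intracellular parasites grown in NIH/3T3 mouse fibroblasts as host cells; luminescent beta-galactosidase reporter signal from transgenic T. cruzi replicating inside host cells; inhibitors lower the luminescence signal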
[6] = NIH3T3 cell viability loss – ATP luminescence, mouse fibroblasts, counter-screen, dose response (AID 2010); assay type: functional, cell-based;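 further: cells exposed to compound for about 90 hours before reading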
[7] = tested on: Vero; experiment: inhibition of WNV-induced cytopathic effect – cell-based, CPE readout (AID 1621); assay type: functional; conditions: Chlorocebus sabaeus
[8] = M. tuberculosis growth inhibition, HTS (AID 449762); assay type: functional
[9] = growth inhibition of yeast DHODH-expressing 3D7 parasites – SYBR Green, dry powder samples, dose response (AID 1159570); assay type: functional, cell-based;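 further: parasite growth measured after 72 hours of compound exposure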
[10] = P. falciparum Dd2 growth inhibitors, dose response, SYBR Green, cherry-picked samples (AID 1159567); assay type: functional, cell-based
[11] = Dd2 malaria parasite growth inhibition potency – SYBR Green, dry powder samples, dose response (AID 1159566); assay type: functional, cell-based;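 further: potency for growth inhibition with lower SYBR green DNA signal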
[12] = growth inhibition of PfATP4-mutant resistant parasites – NITD609-resistant line, SYBR Green, dry powder, dose response (AID 1159571); assay type: functional, cell-based;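 further: parasites synchronized at ring stage by sorbitol before testing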
[13] = toxicity to human hepatoma HepG2 cells – cell-based, cherry-picked samples, cytotoxicity control, dose response (AID 1159577); assay type: functional
[14] = IC50 of insulin release inhibition, rat insulinoma INS-1E line, 5 mM glucose, cell-based (AID 1117331); assay type: functional
[15] = tested on: P388/ADR; experiment: cells; assay type: functional; conditions: Mus musculus
[16] = tested on: SN12K1; experiment: cells; assay type: functional; conditions: Homo sapiens
[17] = tested on: P388; experiment: cells; assay type: functional; conditions: Mus musculus
[18] = glucagon-like peptide-1 release potency in STC-1, concentration-response, half-maximal inhibitory concentration in the STC-1 line (AID 1117345); assay type: functional, cell-based
[19] = Potency on glucagon-like peptide 1 release, dose-response in NCI-H716 cell line, half maximal inhibitory concentration (AID 1117344); assay type: functional, cell-based
[20] = rise of 2N DNA cells, HeLa – IC50, dose response (AID 1117349); assay type: functional, cell-based
[21] = rise of 4N DNA cells, HeLa – IC50, dose response (AID 1117351); assay type: functional, cell-based

Sequence of 5-hydroxytryptamine receptor 1A (P08908 whole entry): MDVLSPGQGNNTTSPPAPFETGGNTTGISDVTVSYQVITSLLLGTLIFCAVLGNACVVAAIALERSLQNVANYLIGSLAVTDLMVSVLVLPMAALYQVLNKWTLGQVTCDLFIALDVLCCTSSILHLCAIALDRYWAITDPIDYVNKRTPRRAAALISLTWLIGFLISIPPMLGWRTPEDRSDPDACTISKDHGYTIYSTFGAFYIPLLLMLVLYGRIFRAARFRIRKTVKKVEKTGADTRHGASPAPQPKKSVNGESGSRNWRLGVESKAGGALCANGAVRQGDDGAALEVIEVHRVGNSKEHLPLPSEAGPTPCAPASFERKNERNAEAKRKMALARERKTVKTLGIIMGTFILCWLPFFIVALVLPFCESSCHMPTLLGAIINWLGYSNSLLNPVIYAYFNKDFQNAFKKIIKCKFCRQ

Structure (SMILES): CCOC(=O)C1CCN(C(c2cccnc2)c2c(NC(=O)c3ccco3)sc(C)c2C)CC1 (configuration not stated)
- EC50 [1]: > 50 µM (not active)
- AC50 [2]: 1.05 µM (active)
- AC50 [3]: 29.4 µM (active)

Structure (SMILES): CN1CCc2ccccc2C1Cc1ccccc1NC(=O)c1sc2ccccc2c1Cl (configuration not stated)
- CC50 [4]: > 100 µM (active)
- EC50 [5]: 2.73 µM (active)
- EC50 [6]: > 60 µM (not active)
- IC50 [7]: 41.2 µM (active)

Structure (SMILES): Fc1ccc(N/N=C2/CC(c3ccccc3)Oc3ccccc32)c(F)c1 (configuration not stated)
- IC50 [8]: > 100 µM (active)

Structure (SMILES): O=C(c1cccc(F)c1)N1CC(=O)N2[C@H](C1)[C@@H](c1ccc(-c3cccnc3)cc1)[C@@H]2CO
- AC50 [9]: 0.151 µM (active)
- AC50 [10]: 0.331 µM (active)
- AC50 [11]: 0.088 µM (active)
- AC50 [12]: 0.0729 µM (active)

Structure (SMILES): O=C(C1CC1)N1CC(=O)N2[C@H](C1)[C@@H](c1ccc(C#CCc3ccccc3)cc1)[C@@H]2CO
- AC50 [10]: 9.21 µM (active)
- AC50 [13]: 35.5 µM (active)

Structure (SMILES): O=C(CCN1CCN2CCCC2C1)N1c2ccccc2Sc2ccc(Cl)cc21 (configuration not stated) [AZACLORZINE]
- IC50 [14]: 16.8 µM (inactive)

Structure (SMILES): CCCCCCCCCCCCCCCCCCOCC(O)CO (configuration not stated) [BATILOL]
- GI50 [15]: 9.82 µM (inactive)
- GI50 [16]: 22.5 µM (inactive)
- GI50 [17]: 6.65 µM (inactive)
- IC50 [18]: > 40 µM (inactive)
- IC50 [19]: > 40 µM (inactive)

Structure (SMILES): CCCOc1ccc2[nH]c(NC(=O)OC)nc2c1 [OXIBENDAZOLE]
- IC50 [20]: 0.0622 µM (active)
- IC50 [21]: 0.0567 µM (active)
